In patent publication US5138061A, “Thioacylating reagents” (BioChem Pharma Inc., priority 1989, dated 1992):
No end group written: not given here.

System: immature T-cell development (de novo antigens on T lymphocytes)
Assay: T cell development in nude athymic mice (thymopentin vs 4-thiothymopentin)
Type: in vivo
Settings: 20 micrograms per subject
Source text: The incorporation of thioamide linkages at positions on the peptide backbone which are susceptible to degradation may be performed in order to increase the peptide's resistance to enzymatic digestion. This enhanced stability may afford greater biological activities to the peptides prolonged existence. For example, thymopentin, which is merely a biologically active fragment of the polypeptide thymopoietin, may be modified to elicit this response. […] A control group of nude athymic mice was administered 20 micrograms of thymopentin per subject according to well-known assay techniques. See, e.g., O. Archer, T. Pierce, B. Papermanter, and R. Good, "Reduced Antibody Response in Thymectomized Rabbits", Nature, 195, 191 (1962); D. Oscaba and J. Miller, "Evidence for a Humeral Thymus Factor Responsible for the Maturation of Immunological Faculty", Nature, 199, 653 (1963); P. Magrit, "T-Cell Development in Normal and Thymopentintreated Nude Mice", J. Exp. Med., 156, 1057 (1982). […]
The immunomodulatory action of thymopentin and 4-thiothymopentin on immature T-cell development by the expression of de novo antigens on T lymphocytes after daily subcutaneous injections for two weeks in four week old nude athymic mice was measured. […]

Substance: RKDVY [thymopentin]
- mean increase for the maturation of T cells and related immune responses: 43%
